The test system of test [1] is 8921 mRNA. Description: 8921 mRNA in liver samples of mice treated with ciprofibrate (microarray). It is filed as in vivo. The settings on record: liver samples of treated mice vs control liver samples, p=0.002.
For the next test, the system named is 33770 mRNA. As to the kind of experiment: 33770 mRNA in livers of mice, ciprofibrate (TaqMan). It is filed as in vivo. The settings on record: p=0.02. An excerpt:
(§1) This example describes the TaqMan™ procedure. The Taqman™ procedure is a quantitative, reverse transcription PCR-based approach for detecting mRNA. The RT-PCR reaction exploits the 5′ nuclease activity of AmpliTaq Gold™ DNA Polymerase to cleave a TaqMan™ probe during PCR. Briefly, cDNA was generated from the samples of interest, e.g., heart, kidney, liver, skeletal muscle, and various vessels, and used as the starting material for PCR amplification. In addition to the 5′ and 3′ gene-specific primers, a gene-specific oligonucleotide probe (complementary to the region being amplified) was included in the reaction (i.e., the Taqman™ probe). […]
(§2) During the PCR reaction, cleavage of the probe separates the reporter dye and the quencher dye, resulting in increased fluorescence of the reporter. Accumulation of PCR products is detected directly by monitoring the increase in fluorescence of the reporter dye. When the probe is intact, the proximity of the reporter dye to the quencher dye results in suppression of the reporter fluorescence. […]
(Real-time PCR tracks product formation cycle by cycle.)

For the next test, the system named is 43969. As to the kind of experiment: 43969 expression in livers of mice administered ciprofibrate (TaqMan). It is filed as in vivo.
Source text: as §1, §2

In test [2] the test system is 2552 mRNA. Description: 2552 mRNA in livers of mice (TaqMan). The class given is in vivo.
Source text: as §1, §2

In another test the test system is 7301 mRNA. Description: 7301 mRNA in livers of mice treated with ciprofibrate (TaqMan). The class given is in vivo. The settings on record: livers of mice during treatment.
Source text: as §1, §2

A further test relates to 112091. As to the kind of experiment: 112091 expression in livers of wild-type mice treated with ciprofibrate. It is filed as in vivo.
The next test relates to 16408 mRNA. Description: 16408 mRNA in livers of mice treated with ciprofibrate (microarray). The class given is in vivo.
The subject of another test is 54946 mRNA. As to the kind of experiment: 54946 mRNA in livers of mice, ciprofibrate (microarray or RT-PCR). Conditions: p=0.008. The class given is in vivo.
For a further test, the system named is 554 mRNA. Description: 554 mRNA in livers of mice treated with ciprofibrate (microarray). The class given is in vivo. The settings on record: livers of treated mice vs control liver samples, p=0.006.
A further test has as its system 9123 mRNA. Description: 9123 mRNA in livers of mice treated with ciprofibrate (TaqMan). It is filed as in vivo. Conditions: livers of mice during treatment.
Source text: as §1, §2

Test [3] concerns 19319 mRNA. Description: 19319 mRNA in livers of mice administered ciprofibrate (TaqMan). It is filed as in vivo.
Source text: as §1, §2

For test [4], the system named is 9380 mRNA. As to the kind of experiment: 9380 mRNA in livers of mice treated with ciprofibrate (TaqMan). It is filed as in vivo.
Source text: as §1, §2

A further test relates to 42028. As to the kind of experiment: 42028 expression in livers of mice treated with ciprofibrate (microarray). The class given is in vivo.
For test [5], the system named is 2569654 mRNA. Description: 2569654 mRNA in livers of mice treated with Ciprofibrate (TaqMan). It is filed as in vivo.
Source text: as §1, §2

A further test relates to 53656 mRNA. Description: 53656 mRNA in livers of Marmosets (TaqMan). It is filed as in vivo.
In a further test the test system is 17729 mRNA. Description: 17729 mRNA in marmoset models (TaqMan). It is filed as in vivo.
In another test the test system is 9462 mRNA. Description: 9462 mRNA regulation by lipid lowering drugs (TaqMan).
Source text: as §1, §2

In another test the test system is 8701 mRNA. Description: 8701 mRNA in livers of marmosets treated with lipid-lowering therapies (TaqMan). It is filed as in vivo.
Test [6] concerns 2552 mRNA. Description: 2552 mRNA in marmoset livers (TaqMan). It is filed as in vivo.
A further test relates to 3533 mRNA. Description: 3533 mRNA regulation by lipid lowering drugs (TaqMan). An excerpt: (§3) This example describes the TaqMan™ procedure. The Taqman™ procedure is a quantitative, reverse transcription PCR-based approach for detecting mRNA. The RT-PCR reaction exploits the 5′ nuclease activity of AmpliTaq Gold™ DNA Polymerase to cleave a TaqMan™ probe during PCR. Briefly, cDNA was generated from the samples of interest, e.g., heart, kidney, liver, skeletal muscle, and various vessels, and used as the starting material for PCR amplification. In addition to the 5′ and 3′ gene-specific primers, a gene-specific oligonucleotide probe (complementary to the region being amplified) was included in the reaction (i.e., the Taqman™ probe). The TaqMan™ probe includes the oligonucleotide with a fluorescent reporter dye covalently linked to the 5′ end of the probe (such as FAM (6-carboxyfluorescein), TET (6-carboxy4,7,2′,7′-tetrachlorofluorescein), JOE (6-carboxy-4,5-dichloro-2,7-dimethoxyfluorescein), or VIC) and a quencher dye (TAMRA (6-carboxy-N,N,N′,N′-tetramethylrhodamine) at the 3′ end of the probe.
(§4) During the PCR reaction, cleavage of the probe separates the reporter dye and the quencher dye, resulting in increased fluorescence of the reporter. Accumulation of PCR products is detected directly by monitoring the increase in fluorescence of the reporter dye. When the probe is intact, the proximity of the reporter dye to the quencher dye results in suppression of the reporter fluorescence. During PCR, if the target of interest is present, the probe specifically anneals between the forward and reverse primer sites. The 5′-3′ nucleolytic activity of the AmpliTaq™ Gold DNA Polymerase cleaves the probe between the reporter and the quencher only if the probe hybridizes to the target. The probe fragments are then displaced from the target, and polymerization of the strand continues. The 3′ end of the probe is blocked to prevent extension of the probe during PCR. […] RNA was prepared using the trizol method and treated with DNase to remove contaminating genomic DNA. cDNA was synthesized using standard techniques.

The subject of test [7] is 9380 mRNA. Description: 9380 mRNA in livers of marmosets (TaqMan). It is filed as in vivo.
Test [8] relates to 19319 mRNA. Description: 19319 mRNA in livers of marmosets (TaqMan). It is filed as in vivo.
Another test deals with 8925 mRNA. As to the kind of experiment: 8925 mRNA in livers of marmosets treated with lipid-lowering therapies (TaqMan). The class given is in vivo.
The subject of the next test is 10102 mRNA. Description: 10102 mRNA regulation by lipid lowering drugs (TaqMan).
Test [9] concerns 2569654 mRNA. Description: 2569654 mRNA in marmoset models (TaqMan). The class given is in vivo.
Source text: as §3, §4

Another test has as its system 21668 mRNA. Description: 21668 mRNA in marmoset models treated with cholesterol lowering agents (TaqMan). It is filed as in vivo.
In a further test the test system is 10653 mRNA. As to the kind of experiment: 10653 mRNA in livers of marmosets treated with lipid-lowering therapies (TaqMan). The class given is in vivo.
A further test relates to 9325 mRNA. Description: 9325 mRNA in livers of marmosets (TaqMan). It is filed as in vivo.
Source text: as §1, §2

Test [10] deals with 8921 mRNA. Description: 8921 mRNA expression in marmosets. The class given is in vivo.

As for `CC(C)(Oc1ccc(C2CC2(Cl)Cl)cc1)C(=O)O` (centres unmarked) [ciprofibrate], in the test on 8921 mRNA [1], the “8921 mRNA downregulated” value was 0.59 fold. Besides, the “33770 mRNA downregulated” value in the test on 33770 mRNA was 0.76 fold. Moreover, the 43969 expression result in the test on 43969 is given as “downregulated”. For the same molecule, the “2552 mRNA expression” value in the test with 2552 mRNA [2] is “downregulate”. Also, the “7301 mRNA expression” value with 7301 mRNA is recorded as “down-regulated”. In the test on 112091, the 112091 expression entry was “down-regulated”. In addition, the “16408 mRNA expression” value in the test with 16408 mRNA was “down-regulated”. Besides, the “54946 mRNA upregulated” value in the test with 54946 mRNA turned out to be 2.0 fold. Moreover, in the test on 554 mRNA, the “554 mRNA downregulated” value came out at 0.68 fold. For the same molecule, in the test on 9123 mRNA, the “9123 mRNA expression” value is on record as “upregulated”. In the test with 19319 mRNA [3], the “19319 mRNA expression” value is recorded as “upregulated”. Besides, the “9380 mRNA expression” value with 9380 mRNA [4] is given as “downregulated”. The 42028 expression result in the test with 42028 is recorded as “down-regulated”. In addition, in the test on 2569654 mRNA [5], the “2569654 mRNA expression” value was “significantly downregulated”.
In the case of cholestyramine, the “53656 mRNA upregulated” value in the test with 53656 mRNA is listed as 1.8 fold. Further, the “17729 mRNA expression” value with 17729 mRNA is listed as “upregulated”. Further, the “9462 mRNA expression” value in the test on 9462 mRNA is listed as “upregulated”. Besides, the “8701 mRNA expression” value in the test with 8701 mRNA was “upregulated”. Besides, the “2552 mRNA expression” value in the test on 2552 mRNA [6] is “upregulated”. Moreover, in the test on 3533 mRNA, the “3533 mRNA expression” value was “significantly downregulated”. For the same molecule, the “9380 mRNA expression” value in the test on 9380 mRNA [7] is “upregulated”. Also, the “19319 mRNA expression” value in the test on 19319 mRNA [8] is recorded as “upregulated”. The “8925 mRNA expression” value with 8925 mRNA was “upregulated”. In the test on 10102 mRNA, the “10102 mRNA expression” value is “significantly upregulated”. In the test on 2569654 mRNA [9], the “2569654 mRNA expression” value is listed as “upregulated”. Moreover, the “21668 mRNA expression” value in the test with 21668 mRNA is listed as “marked increase”. Besides, in the test on 10653 mRNA, the “10653 mRNA expression” value is on record as “downregualted”. Also, in the test with 9325 mRNA, the “9325 mRNA upregulated” value was determined as 1.4 fold. In addition, the “increase in 8921 mRNA expression” value in the test on 8921 mRNA [10] is recorded as 1.5 fold.

The record behind these values is US20050037946A1, “Methods and compositions for treating cardiovascular disease using 1722, 10280, 59917, 85553, 10653, 9235, 21668, 17794, 2210, 6169, 10102, 21061, 17662, 1468, 12282, 6350, 9035, 1820, 23652, 7301, 8925, 8701, 3533, 9462, 9123, 12788, 17729, 65552, 1261, 21476, 33770, 9380, 2569654, 33556, 53656, …” (Millennium Pharmaceuticals, Inc., priority 2003, published 2005).
